PubChem BioAssay AID179 (DTP/NCI, 2004)
Active and inactive are the calls of the source.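 How the source made its calls: active means compounds giving half or more protection of infected cells from virus-caused growth loss, again on retest; inactive means the rest.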

Test system: CEM cells HIV-1 protection, formazan growth assay
Test: NCI AIDS Antiviral Assay
Details: for IC50: measured here: growth of uninfected CEM cells
Procedure, shortened: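 Protection of CEM cells against HIV-1 measured as cell growth via soluble formazan read-out, with five concentrations tested on both infected and uninfected cells; failure to protect may reflect toxicity.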

SMILES | EC50 | IC50 | outcome
O=S(=O)(N1CCCCN(S(=O)(=O)C(F)(F)F)CCCN(S(=O)(=O)C(F)(F)F)CCCCN(S(=O)(=O)C(F)(F)F)CCCN(S(=O)(=O)C(F)(F)F)CCCCN(S(=O)(=O)C(F)(F)F)CCCN(S(=O)(=O)C(F)(F)F)CCCCN(S(=O)(=O)C(F)(F)F)CCC1)C(F)(F)F | > 200 µM | > 200 µM | –
CC1=CC(C)N(C(=O)c2ccc(Cl)cc2)CCN1C(=O)c1ccc(Cl)cc1 (stereo not drawn) | > 44.7 µM | 33.9 µM | –
CO/C(=N\N=Cc1ccccc1)c1ccncc1 | 15.1 µM | 166 µM | –
O/N=C1\CC2(N3CCOCC3)CCC1(c1ccccc1)CC2 | – | – | inactive
CC(C)(O)/C1=C/C=C/CCCCCCCCCC1 | > 200 µM | 34.7 µM | –
CC1NCc2c1[nH]cnc2=S (stereo not drawn) | > 257 µM | > 257 µM | –
COC1CC(OC2C(C)OC(OC3C(C)OC(OC4C(C)OC(O[C@H]5CC[C@@]6(C)C(=CC[C@]7(O)[C@@H]6C[C@@H](OC(C)=O)[C@@]6(C)[C@]7(O)CC[C@@]6(O)C(C)=O)C5)CC4OC)CC3OC)CC2OC)OC(C)C1O (stereo partly drawn) | > 200 µM | > 200 µM | –
O=c1[nH]n(Cc2ccccc2Cl)c2ccccc12 | > 200 µM | > 200 µM | –
COc1ccc2c3c1O[C@]1(C)C34CCN(C)C(C2)C42C=C[C@@]1(OC)c1c(O)ccc(O)c12 | > 60.3 µM | > 60.3 µM | –
Cc1cc(C)c(C(=O)C(C)C(c2ccccc2)c2ccc(Cl)cc2)c(C)c1 (stereo not drawn) | > 26.3 µM | > 26.3 µM | –
O=C(Cn1ccnc1[N+](=O)[O-])N(CCO)CCO | > 977 µM | > 977 µM | –
O=C1CC(C(OCc2ccccc2)C(OCc2ccccc2)C(COCc2ccccc2)OCc2ccccc2)CC(=O)N1 (stereo not drawn) | > 200 µM | > 200 µM | –
Clc1nnc(-c2ccccc2)s1 | > 200 µM | 87.1 µM | –
COc1ccc2c(c1)[n+](=O)c(C(=O)C/C(=N/NC(=O)C[N+](C)(C)C)C(=O)Nc1cccc(C)c1C)c(C)n2O | > 6.31 µM | > 6.31 µM | –
CCOC(=O)C(CCC1=NC(C)(C)CC(C)O1)C(=O)OCC (stereo not drawn) | > 200 µM | > 200 µM | –
COc1ccc2oc(=O)c(-c3csc(C)n3)cc2c1 | > 151 µM | 138 µM | –
CNC(=S)Nc1sc2c(c1C#N)CCCC2 | 148 µM | 151 µM | –
COc1ccc(C2=CC(=O)CCC2)cc1 | > 178 µM | > 178 µM | –
Cc1cc(O)c(C=O)c2c1C(=O)Oc1c(COCO/C=C/C(=O)O)c(O)c(C(=O)O)c(C)c1O2 | 52.5 µM | 61.7 µM | –
CCCCCCCCCCCCCCCCCC(=O)OCC(CN(C)CCN(C)C)OC(=O)CCCCCCCCCCCCCCCCC (stereo not drawn) | – | – | inactive
O=C1C2Cc3ccccc3CN2C(=O)N1CN1CCN(CN2C(=O)C3Cc4ccccc4CN3C2=O)CC1 (stereo not drawn) | > 10 µM | > 10 µM | –
O=C(O)C(CSC(c1ccccc1)(c1ccccc1)c1ccccc1)N=Cc1cccs1 (stereo not drawn) | > 200 µM | 2.04 µM | –

SMILES | EC50 | IC50 | outcome
CC(=O)OCC1OC(n2cc(C)c(-n3cncn3)nc2=O)CC1N=[N+]=[N-] (stereo not drawn) | > 200 µM | 11.5 µM | –
COc1cc2c(c(OC)c1OC)C(=O)[C@H]1OC(=O)N[C@@H]21 | > 200 µM | > 200 µM | –
CCOC(=O)C1=C(C)N(c2ccccc2)C2=C(C(=O)N(c3ccccc3)C2c2ccccc2)C1c1ccccc1 (stereo not drawn) | > 67.6 µM | > 67.6 µM | –
Cc1ccc(/C=C(/C(=O)c2ccccc2)c2ccccc2)cc1 | > 4.9 µM | > 4.9 µM | –
O=P1(N2CCCCC2)OCC2(CO1)COP(=O)(N1CCCCC1)OC2 (stereo not drawn) | > 200 µM | > 200 µM | –
Fc1ccc(Oc2nc3ccccc3nc2-c2ccccc2)cc1 | – | – | inactive
O=C(O)CC1SC2(C(=O)N(Cc3ccccc3)c3ccccc32)N(c2ccccc2)C1=O (stereo not drawn) | > 200 µM | > 100 µM | –
COC(=O)C(/C(=N/N)C(=O)Nc1cc(Cl)c(Cl)cc1Cl)c1nc2ccc(Cl)cc2[nH]c1=O (stereo not drawn) | > 50.1 µM | > 50.1 µM | –
N#C/C=C/c1ccc(Cl)cc1 | > 219 µM | > 219 µM | –
CCn1c(C)nn2c(=O)c3ccccc3nc2c1=O | > 100 µM | > 100 µM | –
FC(F)(F)C(F)(F)c1nnc(C(F)(F)C(F)(F)F)o1 | > 200 µM | > 200 µM | –
c1cnc2c3cnc4sccc4c3nn2c1 | > 74.1 µM | > 74.1 µM | –
CCC1NCC(=O)c2c1[nH]c1ccccc21 (stereo not drawn) | – | – | inactive
C#CCN1C(=O)CN2C(Cl)(Cl)C2(c2ccccc2)c2cc(Cl)ccc21 (stereo not drawn) | > 200 µM | 22.9 µM | –
CCOC(=O)c1cc2c3c(c(O)c(OC)c2s1)N(C(=O)c1cc2c4c(c(O)c(OC)c2s1)N(C(C)=O)CC4)CC3 | – | – | inactive
Cc1nnc(N/N=C(/C(=O)C(C#N)c2ccccc2)C(C#N)c2ccccc2)n1N (stereo not drawn) | > 224 µM | 38.9 µM | –
N/C(=N\N=C/c1ccc(OCc2ccccc2)cc1)NO | – | – | inactive
COC(=O)C(=O)C(C(=O)C(=O)Nc1ccc([N+](=O)[O-])cc1[N+](=O)[O-])c1nc2ccc(Cl)cc2[nH]c1=O (stereo not drawn) | > 132 µM | > 132 µM | –
CCN(CCN(CC)C(=O)NC)C(=O)NC | > 200 µM | > 200 µM | –
O=c1[nH]c2cc(C(F)(F)F)ccc2nc1CBr | > 200 µM | 6.61 µM | –
OCCN(CCO)CN(CO)c1nc(N(CO)CN(CCO)CCO)nc(N(CO)CN(CCO)CCO)n1 | > 437 µM | > 437 µM | –
C[C@]12CC/C(=N/O)C(O)=C1CC[C@@H]1C2CC[C@]2(C)NC(=O)CCC12 (stereo partly drawn) | > 282 µM | 132 µM | –

SMILES | EC50 | IC50 | outcome
COC1/C=C/OC2(C)Oc3c(C)c(O)c4c(O)c(c(/C=N/N5C(C)CN(Cc6cccc(O)c6)CC5C)c(O)c4c3C2=O)NC(=O)/C(C)=C\C=C\C(C)C(O)C(C)C(O)C(C)C(OC(C)=O)C1C (stereo not drawn) | > 200 µM | 6.46 µM | –
COc1cc2c(cc1O)CC[n+]1cc3c(OC)c(OC)ccc3cc1-2 | > 182 µM | > 182 µM | –
CC1C2=C(C(=O)N1Cc1ccccc1)C(C1OC(COC(=O)c3ccccc3)C(OC(=O)c3ccccc3)C1OC(=O)c1ccccc1)C(=O)N(C)C2=O (stereo not drawn) | > 7.24 µM | > 7.24 µM | –
COC(=O)C1CCC(=O)N1CN(C(C)=O)c1cc(OC)ccc1OC (stereo not drawn) | > 200 µM | > 200 µM | –
CC(=O)OC1C[C@H]2C(OC(=O)c3ccccc3)C3C4(OC(C)=O)COC4C[C@H](OC(C)=O)[C@@]3(C)C(OC(C)=O)[C@H](OC(C)=O)C(=C1C)C2(C)C (stereo partly drawn) | > 35.5 µM | > 35.5 µM | –
O=[N+]([O-])c1nccn1CC(O)CF (stereo not drawn) | > 468 µM | > 468 µM | –
CC1=C2C3OC(=O)C(C)C3C(O)C[C@@]2(C)C(=O)CC1 (stereo partly drawn) | – | – | inactive
CC(=O)OCc1nc2ncnc(N)c2[nH]1 | > 631 µM | > 631 µM | –
COc1ccc(-c2c(N3CCOCC3)oc3cc(N4CCOCC4)c(O)cc23)cc1 | > 200 µM | 10.2 µM | –
C[C@H]1C2=CC(=O)CC[C@@](C)(O2)[C@H]2CC[C@]3(C)[C@@H](O)CC[C@H]3[C@H]12 | > 589 µM | 234 µM | –
C=CCSS/C=C/CS(=O)CC=C (stereo not drawn) | > 81.3 µM | 0.692 µM | –
CCc1cc(-c2ccco2)c(C#N)c(=S)n1C1OC(COC(C)=O)C(OC(C)=O)C(OC(C)=O)C1OC(C)=O (stereo not drawn) | > 200 µM | 79.4 µM | –
CN(Cc1c(S)ccc2ccccc12)Cc1c(S)ccc2ccccc12 | > 100 µM | 17 µM | –
CCCCOC(=O)CSSCC(=O)OCCCC | > 200 µM | 51.3 µM | –
O=C1CCC(=O)c2c1c(O)c1ccncc1c2O | – | – | inactive
CCOC(=O)N1CCN(c2c(N)nc(C)[nH]c2=O)CC1 | > 200 µM | > 200 µM | –
CC1(CCCO)CCCCCC(C)(CCCO)C1=O (stereo not drawn) | > 200 µM | 97.7 µM | –
C(/COc1cccnc1)=N\NC1=NCCN1 | > 832 µM | 186 µM | –
O=C1CNN=C(Cn2nc(-c3ccccc3)c3ccccc3c2=O)N1 | > 6.03 µM | > 6.03 µM | –
CCOC(=O)NCC(=O)NCC(=O)NCC(N)=O | > 200 µM | > 200 µM | –
CCOC(=O)C(CCCC(C(=O)OCC)C(=O)OCC)C(=O)OCC | > 200 µM | > 200 µM | –
CC[N+](CC)(CCNCC(N)=O)CC(N)=O | > 200 µM | > 200 µM | –

SMILES | EC50 | IC50 | outcome
CCCCCCC(C)CCCCCCCCCCC(=O)OCC(COP(=O)([O-])OCC[N+](C)(C)C)OC(=O)CCCCCCCCCCC(C)CCCCCC (stereo not drawn) | – | – | inactive
COc1ccccc1OC(=O)/C=C/c1ccccc1 | > 200 µM | 3.72 µM | –
O=C(O)c1cc(O)c2c(c1)C(=O)c1cc(O)cc(O)c1C2=O | – | – | inactive
COC1CCC(OS(C)(=O)=O)C(CO)O1 (stereo not drawn) | – | – | inactive
O=C(/C=C/c1ccc(O)c(O)c1)O[C@@H](C(=O)O)[C@@H](OC(=O)/C=C/c1ccc(O)c(O)c1)C(=O)O | > 200 µM | 17 µM | –
CC1C2CC(CC2(C)O)C1(C)C (stereo not drawn) | > 562 µM | > 562 µM | –
Cc1ccc2c3nc4ccccc4c-3csc2c1 | 0.17 µM | 0.363 µM | –
OC1CCC(COC(c2ccccc2)(c2ccccc2)c2ccccc2)O1 (stereo not drawn) | > 200 µM | 24.5 µM | –
Cc1ccc2c(c1)-c1c(C#N)c(N)nc(-c3ccc(Cl)cc3)c1CCS2(=O)=O | > 200 µM | 3.16 µM | –
Cc1ccc(NC(=O)CCc2nnc(N)o2)cc1 | > 380 µM | > 380 µM | –
COC(=O)c1cc(C)ccc1CC(Cc1cccc(C)c1)C(=O)OC (stereo not drawn) | > 200 µM | > 200 µM | –
O=C1CCCC/C1=C/C=C/c1ccccc1 | > 64.6 µM | > 64.6 µM | –
Cc1ccc(S(=O)(=O)NC(=O)NCCc2ccccc2)cc1 | 7.08 µM | 295 µM | –
C=C1[C@H]2CC[C@H]3C45CO[C@@H](CC4=O)C(C)(C)C5=C(O)C(=O)C3(C2)[C@@H]1OC(C)=O | > 18.6 µM | > 18.6 µM | –
CCOC(=O)C1=C(OS(=O)(=O)C(F)(F)F)CCCC1 | > 200 µM | > 200 µM | –
CC(=O)/C(=C/c1cccc(F)c1)c1ccccc1 | > 56.2 µM | > 56.2 µM | –
CCOC(=O)/C(F)=C/c1cccc(C)c1 | > 126 µM | > 126 µM | –
Cc1nc(Nc2nnc(-c3cc([N+](=O)[O-])cc([N+](=O)[O-])c3C)o2)sc1C(=O)CC(=O)Cc1nc2ccc(Cl)cc2[nH]c1=O | > 57.5 µM | > 57.5 µM | –
Cc1cc(S(=O)(=O)Nc2nncn2-c2ccc(Cl)cc2)c(S)cc1Cl | – | – | inactive
